Paper PMC10349806 (Nature Communications, 2023)
Where “and” joins values, the source holds several entries; their conditions need not be identical. Equal entries are not always repeated.

What was measured:
PfCRT variant H46A = target: T1, PfCRT variant H46A (Plasmodium falciparum, UniProt Q9N623, A220S/H46A/I356T/K76T/M74I/N326S/N75E/Q271E/R371I); assay: CQ uptake assay, oocytes expressing H46A; type: cell-based
T1 sequence (Q9N623 1-424 H46A/M74I/N75E/K76T/A220S/Q271E/N326S/I356T/R371I): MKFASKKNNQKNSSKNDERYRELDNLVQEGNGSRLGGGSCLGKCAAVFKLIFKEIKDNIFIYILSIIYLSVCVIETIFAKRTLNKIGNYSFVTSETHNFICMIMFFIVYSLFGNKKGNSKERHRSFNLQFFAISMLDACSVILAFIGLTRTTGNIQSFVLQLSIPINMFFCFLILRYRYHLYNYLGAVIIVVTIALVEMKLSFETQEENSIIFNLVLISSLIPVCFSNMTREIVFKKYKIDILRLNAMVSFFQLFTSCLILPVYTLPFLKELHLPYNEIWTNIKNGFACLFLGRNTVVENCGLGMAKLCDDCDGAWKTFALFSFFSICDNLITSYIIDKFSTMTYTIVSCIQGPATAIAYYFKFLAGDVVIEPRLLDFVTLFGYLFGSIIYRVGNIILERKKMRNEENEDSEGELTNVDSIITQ
Experimental: (§1) Site-directed mutagenesis of PfCRT^Dd2 was performed as described using the megaprimer method with overlap extension[21],[54]. The primer pairs used are listed in Supplementary Table 6. Please note that a codon-optimized and oocyte-adapted version of PfCRT^Dd2 was used[22] (Supplementary Fig. 16). The resulting DNA fragment was cloned into the SP64T expression vector and verified by sequencing.
(§2) Oocytes were obtained as described previously. Briefly, adult (>2 years old) female X. laevis frogs (NASCO) were anesthetized in a cooled solution of ethyl 3-amino benzoate methanesulfonate (0.1%, w/v), followed by a surgical removal of parts of the ovary. The ovary lobes were carefully dissected and small pieces of oocytes were incubated in Ca^2+-free ND96 buffer (96 mM NaCl, 2 mM KCl, 1 mM MgCl2 buffered with 5 mM HEPES/NaOH, pH 7.5) supplemented with collagenase D (0.1%, w/v; Roche), BSA (0.5%, w/v), and 9 mm Na2HPO4 at 18 °C for 14-16 h while gentle shaking. After incubation, the oocytes were carefully washed several times with ND96 buffer (96 mM NaCl, 2 mM KCl, 1.8 mM CaCl2, 1 mM MgCl2 buffered with 5 mM HEPES/NaOH, pH 7.5) supplemented with 100 mg l^−1 gentamycin). Defolliculated and healthy-looking stage V-VI oocytes were manually selected for RNA microinjection. The RNA was generated as following: The codon-optimized sequences of PfCRT variants were cloned into the pSP64T expression vector. After vector linearization using the restriction endonucleases BamHI or SalI (New England Biolabs), transcription was performed using the in vitro SP6 mMessage mMachine Kit (Ambion)[34]. The obtained RNA was kept at −80 °C and diluted with nuclease-free water to a concentration of 0.6 μg μl^−1. Precision-bore glass capillary tubes (3.5-inch glass capillaries; Drummond Scientific Co.) were pulled on a vertical puller (P-87 Flaming/Brown micropipette puller, Sutter Instrument Co.), graduated, and placed on a microinjector (Nanoject II Auto-Nanoliter Injector, Drummond Scientific Co.). 50 nl of nuclease-free water alone (control oocytes) or 50 nl of 0.6 μg μl^−1 RNA were injected under stereomicroscopic control. Injected oocytes were incubated for 46–72 h at 18 °C with twice-daily buffer changes before usage in experiments.
(§3) Drug uptake assays were performed as described previously[21],[22],[24],[34]. […] The direction of radio-labeled drug transport is here from the mostly acidic extracellular solution (pH 4.5 or 6.0, as indicated) into the oocyte cytosol (pH ∼ 7.2), which corresponds to the efflux of drug from the acidic digestive vacuole (pH 5.2) into the parasite cytoplasm (pH 7.2). The topology of PfCRT in the oolemma is such that both the N- and C-terminus face the extracellular milieu[3],[22]. In the parasite, the N- and C-terminus face the lumen of the digestive vacuole. CQ uptake kinetics were performed by incubating oocytes in ND96 buffer adjusted to a pH of 4.5, 5.0, 5.5, or 6.0 and supplemented with 50 nM [^3H]CQ and one of 7 different CQ concentrations (10 µM, 50 µM, 100 µM, 200 µM, 300 µM, 400 µM, 500 µM CQ). The reaction was stopped at the 60 min time point, which is in the linear uptake range[22],[34] (Supplementary Fig. 17). For determination of the amount of drug uptake for each oocyte, the reaction medium was removed and the oocytes were washed three times with 2 ml of ice-cold ND96 buffer. Each oocyte was individually transferred to a scintillation vial containing 5% sodium dodecyl sulfate (200 μl) for lysis. The radioactivity of each sample was measured using a liquid scintillation analyzer Tri-Carb 4910 TR (PerkinElmer). Oocytes that were injected with water instead of RNA were analyzed in parallel, representing the uptake of a drug by diffusion and/or endogenous permeation pathways. The resulting value represents the “background“ level of drug accumulation in oocytes (in-depth discussion in[22]). […]

PfCRT variant E207S = assay: CQ uptake assay, oocytes expressing E207S; type: cell-based, Plasmodium falciparum
Experimental: as §1, §2, §3

[1] = H46A, 50 µM CQ, 1 h, mean ± SEM
[2] = E207S, 50 µM CQ, 1 h, mean ± SEM

## CCN(CC)CCCC(C)Nc1ccnc2cc(Cl)ccc12 (stereo not drawn) [CQ, chloroquine]
PfCRT variant H46A; [1]
  Activity at pH 4.5: 2.03 ± 0.27 pmol h-1 oocyte-1
  Activity at pH 6.0: 5.06 ± 0.47 pmol h-1 oocyte-1
PfCRT variant H46A; H46A, CQ transport at pH 4.5 / pH 6.0
  R-value: 0.40 ± 0.03
PfCRT variant H46A; pH 4.5, single replicates, Fig 1d left
  H46A transport activity pH 4.5: 2.52 pmol oocyte-1 h-1 and 1.13 pmol oocyte-1 h-1 and 2.13 pmol oocyte-1 h-1 and 2.35 pmol oocyte-1 h-1
PfCRT variant H46A; pH 4.5 vs pH 6.0, Fig 1d left
  H46A R-value: 0.45 and 0.32 and 0.36
PfCRT variant H46A; pH 6.0, single replicates, Fig 1d left
  H46A transport activity pH 6.0: 5.57 pmol oocyte-1 h-1 and 3.48 pmol oocyte-1 h-1 and 5.92 pmol oocyte-1 h-1 and 5.27 pmol oocyte-1 h-1
PfCRT variant E207S; [2]
  Activity at pH 4.5: 2.94 ± 0.21 pmol h-1 oocyte-1
  Activity at pH 6.0: 3.07 ± 0.23 pmol h-1 oocyte-1
PfCRT variant E207S; E207S, CQ transport at pH 4.5 / pH 6.0
  R-value: 0.96 ± 0.01
PfCRT variant E207S; pH 4.5, individual replicates, Fig 6b
  E207S transport activity pH 4.5: 3.45 pmol oocyte-1 h-1 and 2.79 pmol oocyte-1 h-1 and 2.59 pmol oocyte-1 h-1
PfCRT variant E207S; pH 6.0, individual replicates, Fig 6b
  E207S transport activity pH 6.0: 3.59 pmol oocyte-1 h-1 and 2.98 pmol oocyte-1 h-1 and 2.63 pmol oocyte-1 h-1
PfCRT variant E207S; ratio of activity pH 4.5 / pH 6.0
  E207S R-value: 0.96 and 0.94 and 0.98
